In ChEMBL document CHEMBL3860107, “Discovery of [5-Amino-1-(2-methyl-3H-benzimidazol-5-yl)pyrazol-4-yl]-(1H-indol-2-yl)methanone (CH5183284/Debio 1347), An Orally Available and Selective Fibroblast Growth Factor Receptor (FGFR) Inhibitor” (J Med Chem, 2016):
pIC50: −log10 of the molar value. Values after ≈ are worked out from the molar mass of the structure shown. Active and inactive are the calls of the source. No cut-off for these calls is given here.

Assays:
[1] = molecular target: Vascular endothelial growth factor receptor 2 (Homo sapiens, UniProt P35968); test: Inhibition of human KDR by time-resolved fluorescence or time-resolved fluorescence assay
Sequence of Vascular endothelial growth factor receptor 2 (P35968 whole entry): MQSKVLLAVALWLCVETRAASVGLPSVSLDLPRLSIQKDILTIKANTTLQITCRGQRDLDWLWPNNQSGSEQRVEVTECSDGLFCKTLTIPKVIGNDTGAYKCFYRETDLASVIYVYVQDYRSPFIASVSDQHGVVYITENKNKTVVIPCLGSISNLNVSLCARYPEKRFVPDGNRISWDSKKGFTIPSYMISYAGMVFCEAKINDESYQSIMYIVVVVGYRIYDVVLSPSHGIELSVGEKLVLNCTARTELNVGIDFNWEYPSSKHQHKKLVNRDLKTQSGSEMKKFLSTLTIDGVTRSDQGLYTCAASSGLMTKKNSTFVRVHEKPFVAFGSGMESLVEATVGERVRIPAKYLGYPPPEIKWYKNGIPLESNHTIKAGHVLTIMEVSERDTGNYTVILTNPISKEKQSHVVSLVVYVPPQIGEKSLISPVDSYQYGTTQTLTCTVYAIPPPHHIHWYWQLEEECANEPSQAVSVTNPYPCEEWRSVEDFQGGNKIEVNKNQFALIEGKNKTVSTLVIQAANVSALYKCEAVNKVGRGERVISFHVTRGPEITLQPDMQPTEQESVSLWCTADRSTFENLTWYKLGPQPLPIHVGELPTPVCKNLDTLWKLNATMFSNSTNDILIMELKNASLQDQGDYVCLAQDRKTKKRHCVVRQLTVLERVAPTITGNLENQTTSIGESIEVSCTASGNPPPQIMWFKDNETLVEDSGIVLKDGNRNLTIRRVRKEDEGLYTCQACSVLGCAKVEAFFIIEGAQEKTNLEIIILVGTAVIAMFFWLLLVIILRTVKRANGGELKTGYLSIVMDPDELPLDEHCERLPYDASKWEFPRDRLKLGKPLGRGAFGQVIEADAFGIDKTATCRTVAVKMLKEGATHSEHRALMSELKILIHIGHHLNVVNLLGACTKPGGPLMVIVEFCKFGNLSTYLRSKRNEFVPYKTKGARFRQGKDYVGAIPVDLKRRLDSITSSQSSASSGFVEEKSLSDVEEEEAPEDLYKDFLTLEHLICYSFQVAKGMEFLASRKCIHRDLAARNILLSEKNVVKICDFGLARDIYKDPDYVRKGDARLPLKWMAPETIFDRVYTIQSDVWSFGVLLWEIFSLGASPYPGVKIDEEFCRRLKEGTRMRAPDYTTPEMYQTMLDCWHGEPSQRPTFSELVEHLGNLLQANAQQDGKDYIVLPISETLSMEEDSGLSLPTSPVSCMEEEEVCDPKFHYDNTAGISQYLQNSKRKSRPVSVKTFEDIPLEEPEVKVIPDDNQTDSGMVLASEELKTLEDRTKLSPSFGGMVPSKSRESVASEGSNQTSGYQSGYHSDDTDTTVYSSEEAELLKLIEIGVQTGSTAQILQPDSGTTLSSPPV

cells = conditions: Homo sapiens, HCT-116, 96 h
Description: Antiproliferative activity against human HCT116 cells incubated for 4 days by CCK8 assay

[2] = Antiproliferative activity against human SNU16 cells incubated for 4 days by CCK8 assay; format: functional, cell-based; conditions: SNU-16, 96 h
[3] = Solubility in FaSSIF at pH 6.5 irradiated ultrasonically for 10 mins and shaken for 2 hrs followed by centrifugation for 10 mins by HPLC-UV method; format: physicochemical
[4] = Intrinsic clearance in human liver microsomes at 1 uM in presence of NADPH incubated for 30 mins by LC/MS method; format: ADME; conditions: read-out: CLH
[5] = Oral bioavailability cynomolgus monkey at 1 mg/kg by LC-MS/MS method; format: ADME, organism-based, Macaca fascicularis; conditions: in vivo
hERG (KCNH2) = hERG (KCNH2) (Homo sapiens, UniProt Q12809); test: Inhibition of human ERG expressed in CHO cells assessed as reduction in channel currents at 10 uM at -80 mV holding potential by automated whole-cell patch clamp method; conditions: CHO cells that express hERG
Sequence of hERG (KCNH2) (Q12809 whole entry): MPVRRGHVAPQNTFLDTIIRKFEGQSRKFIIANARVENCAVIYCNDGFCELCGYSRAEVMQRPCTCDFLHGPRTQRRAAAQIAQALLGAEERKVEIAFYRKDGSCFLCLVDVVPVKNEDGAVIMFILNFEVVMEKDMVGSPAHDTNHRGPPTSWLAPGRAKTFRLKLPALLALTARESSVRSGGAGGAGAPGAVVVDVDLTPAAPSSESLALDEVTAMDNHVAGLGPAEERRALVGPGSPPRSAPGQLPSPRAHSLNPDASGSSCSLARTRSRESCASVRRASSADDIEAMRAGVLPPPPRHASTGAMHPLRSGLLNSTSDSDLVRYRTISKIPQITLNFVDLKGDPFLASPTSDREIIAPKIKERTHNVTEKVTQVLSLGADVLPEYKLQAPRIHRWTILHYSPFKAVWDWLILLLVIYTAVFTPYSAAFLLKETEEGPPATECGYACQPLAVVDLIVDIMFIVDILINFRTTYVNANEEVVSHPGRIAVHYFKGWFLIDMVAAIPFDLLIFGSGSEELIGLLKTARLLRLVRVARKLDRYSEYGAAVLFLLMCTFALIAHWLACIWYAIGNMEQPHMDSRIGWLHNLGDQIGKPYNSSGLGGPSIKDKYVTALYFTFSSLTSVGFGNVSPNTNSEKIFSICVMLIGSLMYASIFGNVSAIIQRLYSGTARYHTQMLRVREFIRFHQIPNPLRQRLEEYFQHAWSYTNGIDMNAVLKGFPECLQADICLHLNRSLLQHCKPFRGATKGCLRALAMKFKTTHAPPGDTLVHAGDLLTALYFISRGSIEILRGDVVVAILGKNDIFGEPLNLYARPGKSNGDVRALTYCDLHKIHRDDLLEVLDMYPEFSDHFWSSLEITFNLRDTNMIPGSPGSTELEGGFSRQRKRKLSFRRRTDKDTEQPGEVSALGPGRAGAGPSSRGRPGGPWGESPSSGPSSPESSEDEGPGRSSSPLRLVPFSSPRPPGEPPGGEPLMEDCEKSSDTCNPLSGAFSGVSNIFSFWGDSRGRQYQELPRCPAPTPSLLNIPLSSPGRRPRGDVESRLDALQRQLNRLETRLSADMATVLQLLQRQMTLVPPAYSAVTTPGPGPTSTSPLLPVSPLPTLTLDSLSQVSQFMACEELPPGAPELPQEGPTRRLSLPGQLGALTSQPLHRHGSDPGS

[6] = molecular target: Voltage-gated inwardly rectifying potassium channel KCNH2 (Homo sapiens, UniProt Q12809); test: Inhibition of human ERG expressed in CHO cells assessed as reduction in channel currents at -80 mV holding potential by automated whole-cell patch clamp method
Sequence of Voltage-gated inwardly rectifying potassium channel KCNH2 (Q12809 whole entry): as above

[7] = molecular target: Proto-oncogene tyrosine-protein kinase Src (Homo sapiens, UniProt P12931); test: Inhibition of human SRC by time-resolved fluorescence or time-resolved fluorescence assay
Sequence of Proto-oncogene tyrosine-protein kinase Src (P12931 2-536 limits assumed): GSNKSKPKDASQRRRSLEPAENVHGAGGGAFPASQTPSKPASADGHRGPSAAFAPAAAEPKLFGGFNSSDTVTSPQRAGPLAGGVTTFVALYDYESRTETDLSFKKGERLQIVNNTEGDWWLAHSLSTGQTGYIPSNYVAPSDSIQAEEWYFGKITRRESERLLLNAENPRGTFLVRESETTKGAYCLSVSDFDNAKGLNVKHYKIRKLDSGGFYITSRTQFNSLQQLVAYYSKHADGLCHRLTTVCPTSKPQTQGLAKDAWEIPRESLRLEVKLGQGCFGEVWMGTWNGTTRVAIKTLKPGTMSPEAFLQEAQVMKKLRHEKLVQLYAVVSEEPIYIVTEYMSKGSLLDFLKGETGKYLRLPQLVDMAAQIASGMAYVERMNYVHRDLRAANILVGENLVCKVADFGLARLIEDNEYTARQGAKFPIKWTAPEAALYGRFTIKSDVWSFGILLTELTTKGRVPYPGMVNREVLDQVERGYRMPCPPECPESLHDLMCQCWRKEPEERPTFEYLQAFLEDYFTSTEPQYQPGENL

SNU-16 = conditions: Homo sapiens
RT112/84 = conditions: Homo sapiens
Description: Antitumor activity against FGFR3-TACC3 mutant expressing human RT112/84 cells xenografted in mouse

UM-UC-14 = conditions: Homo sapiens
Description: Antitumor activity against FGFR3 S249C mutant expressing human UM-UC-14 cells xenografted in mouse

[8] = Antitumor activity against human SNU16 cells xenografted in CAnN.Cg-Foxn1 (nu)/CrlCrlj nu/nu BALB nu/nu mouse assessed as tumor growth inhibition at 30 mg/kg, po qd for 11 days; format: functional; conditions: SNU-16, po, 264 h, read-out: TGI
MFE-280 = conditions: Homo sapiens
Description: Antitumor activity against FGFR2 S252W mutant expressing human MFE280 cells xenografted in mouse

[9] = Antitumor activity against human SNU16 cells xenografted in CAnN.Cg-Foxn1 (nu)/CrlCrlj nu/nu BALB nu/nu mouse assessed as tumor growth inhibition at 100 mg/kg, po qd for 11 days; format: functional; conditions: SNU-16, po, 264 h, read-out: TGI
KG-1 = conditions: Homo sapiens
Description: Antitumor activity against FGFR1OP-FGFR1 fusion protein expressing human KG1 cells xenografted in mouse

[10] = Permeability from apical to basolateral side in human Caco2 cells at 10 uM incubated for 120 mins by LC-MS/MS method; format: ADME, cell-based; conditions: Caco-2, read-out: permeability
[11] = molecular target: Fibroblast growth factor receptor 4 (Homo sapiens, UniProt P22455); test: Inhibition of human FGFR4 by time-resolved fluorescence or time-resolved fluorescence assay
Sequence of Fibroblast growth factor receptor 4 (P22455 whole entry): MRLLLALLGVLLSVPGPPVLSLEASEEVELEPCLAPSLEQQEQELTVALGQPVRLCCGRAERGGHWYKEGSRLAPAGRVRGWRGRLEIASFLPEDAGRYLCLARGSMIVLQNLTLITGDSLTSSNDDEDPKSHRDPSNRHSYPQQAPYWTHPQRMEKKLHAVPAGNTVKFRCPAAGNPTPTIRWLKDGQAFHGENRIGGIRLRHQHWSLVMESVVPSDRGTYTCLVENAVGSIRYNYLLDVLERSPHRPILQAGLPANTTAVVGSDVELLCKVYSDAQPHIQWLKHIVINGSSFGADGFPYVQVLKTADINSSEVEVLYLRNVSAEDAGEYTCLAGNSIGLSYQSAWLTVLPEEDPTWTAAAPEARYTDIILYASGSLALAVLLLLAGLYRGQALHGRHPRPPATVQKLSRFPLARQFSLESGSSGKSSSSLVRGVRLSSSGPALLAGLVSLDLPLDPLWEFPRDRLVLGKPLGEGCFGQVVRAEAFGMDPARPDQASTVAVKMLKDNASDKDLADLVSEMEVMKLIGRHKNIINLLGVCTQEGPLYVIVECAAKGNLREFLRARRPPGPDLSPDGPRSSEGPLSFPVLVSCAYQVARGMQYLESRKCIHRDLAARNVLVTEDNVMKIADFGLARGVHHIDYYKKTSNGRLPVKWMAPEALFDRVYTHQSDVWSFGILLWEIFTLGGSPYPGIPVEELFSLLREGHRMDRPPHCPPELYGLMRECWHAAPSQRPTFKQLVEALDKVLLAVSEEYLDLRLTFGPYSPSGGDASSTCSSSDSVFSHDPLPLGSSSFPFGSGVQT

[12] = molecular target: Fibroblast growth factor receptor 3 (Homo sapiens, UniProt P22607)
Description: Inhibition of human FGFR3 by time-resolved fluorescence or time-resolved fluorescence assay

[13] = molecular target: Fibroblast growth factor receptor 1 (Homo sapiens, UniProt P11362)
Description: Inhibition of human FGFR1 by time-resolved fluorescence or time-resolved fluorescence assay

Rattus norvegicus [14] = species on record: Rattus norvegicus; test: Cardiotoxicity in rat assessed as effect on blood pressure; format: toxicity, organism-based
Mus musculus = test: Toxicity in human SNU16 cells xenografted CAnN.Cg-Foxn1 (nu)/CrlCrlj nu/nu BALB nu/nu mouse assessed as induction of body weight loss at 30 and 100 mg/kg, po qd for 11 days; format: organism-based, SNU-16; conditions: in vivo, 264 h
[15] = Cardiotoxicity in Langendorff's isolated guinea pig heart perfusion model in assessed as induction of QTc prolongation; format: toxicity, tissue-based, Cavia porcellus
[16] = AUC in rat at 30 mg/kg; format: ADME, organism-based; conditions: in vivo
[17] = Cardiotoxicity in monkey assessed as effect on blood pressure; format: toxicity, Macaca mulatta; conditions: rhesus monkey
Rattus norvegicus [18] = test: Cardiotoxicity in telemetry instrumented rat assessed as effect on blood pressure at 30 mg/kg; format: toxicity, organism-based; conditions: in vivo

Nc1c(C(=O)c2cc3ccccc3[nH]2)cnn1-c1ccc2nc[nH]c2c1
pIC50 [1]: 6.47 | pIC50 (cells): 4.77 | pIC50 [2]: 6.42 | solubility at 2 h [3]: 37 µg/mL (≈ 108 µM) | microsomal CLint at 1 µM [4]: 4.2 µL/min/mg

Cc1nc2cc(-n3ncc(C(=O)c4cc5ccc(CN6CCC(F)(F)CC6)cc5[nH]4)c3N)ccc2[nH]1
bioavailability [5]: 5% | pIC50 [1]: 6.55 | pIC50 [2]: 8.22 | inhibition at 10 µM (hERG (KCNH2)): 58% | microsomal CLint at 1 µM [4]: 14 µL/min/mg | pIC50 [6]: 5.07

Cc1nc2cc(-n3ncc(C(=O)c4cc5ccc(CN6CCOCC6)cc5[nH]4)c3N)ccc2[nH]1
bioavailability [5]: 0% | pIC50 [1]: 6.92 | pIC50 [2]: 8.59 | inhibition at 10 µM (hERG (KCNH2)): 15% | microsomal CLint at 1 µM [4]: 9.6 µL/min/mg | pIC50 [6]: < 5.00

CCc1nc2cc(-n3ncc(C(=O)c4cc5ccccc5[nH]4)c3N)ccc2[nH]1
pIC50 [1]: 5.77 | pIC50 (cells): 5.82 | pIC50 [2]: 7.11 | solubility at 2 h [3]: 42 µg/mL (≈ 113 µM) | microsomal CLint at 1 µM [4]: 23 µL/min/mg

Nc1c(C(=O)c2cc3cc(CN4CCOCC4)ccc3[nH]2)cnn1-c1cc(O)ccc1Cl
pIC50 [1]: 8.62 | pIC50 (cells): 5.44 | pIC50 [2]: 6.26 | solubility at 2 h [3]: 40 µg/mL (≈ 88.5 µM) | microsomal CLint at 1 µM [4]: 20 µL/min/mg

Cc1nc2cc(-n3ncc(C(=O)c4cc5ccc(S(C)(=O)=O)cc5[nH]4)c3N)ccc2[nH]1
pIC50 [1]: 6.00 | pIC50 (cells): 4.43 | pIC50 [2]: 7.09 | microsomal CLint at 1 µM [4]: 5.4 µL/min/mg

Nc1c(C(=O)c2ccc3ncccc3c2)cnn1-c1cc(O)ccc1Cl
pIC50 [1]: 5.80 | pIC50 (cells): 5.03 | pIC50 [2]: 5.05

Nc1c(C(=O)c2cc3ccccc3[nH]2)cnn1-c1ccccc1Cl
pIC50 [1]: 6.39 | pIC50 (cells): 5.57 | pIC50 [2]: 5.54

Cc1cccc(C(=O)c2cnn(-c3cc(O)ccc3Cl)c2N)c1
pIC50 [1]: 5.54 | pIC50 (cells): < 4.70 | pIC50 [2]: 4.82

Cc1ccc2cc(C(=O)c3cnn(-c4ccc5nc(C)[nH]c5c4)c3N)[nH]c2c1
pIC50 [1]: 6.43 | pIC50 (cells): 5.01 | inhibition at 10 µM (hERG (KCNH2)): 64% | microsomal CLint at 1 µM [4]: 140 µL/min/mg | pIC50 [6]: 5.16

Nc1c(C(=O)c2cc3ccccc3o2)cnn1-c1cc(O)ccc1Cl
pIC50 [1]: 6.77 | pIC50 (cells): 5.09 | pIC50 [2]: 5.48

Nc1c(C(=O)c2cc3ccccc3[nH]2)cnn1-c1ccc2[nH]ccc2c1
pIC50 (cells): 6.33 | pIC50 [2]: 6.72 | solubility at 2 h [3]: 4 µg/mL (≈ 11.7 µM) | microsomal CLint at 1 µM [4]: 4.4 µL/min/mg

Cc1nc2cc(-n3ncc(C(=O)c4cc5ccc(-c6ccccc6)cc5[nH]4)c3N)ccc2[nH]1
bioavailability [5]: 3% | pIC50 [1]: 5.47 | pIC50 [2]: 7.08 | inhibition at 10 µM (hERG (KCNH2)): 15% | microsomal CLint at 1 µM [4]: 3.2 µL/min/mg | pIC50 [7]: < 4.30 | pIC50 [6]: < 5.00

Nc1c(C(=O)c2cc3ccccc3[nH]2)cnn1-c1cc(O)ccc1Cl
pIC50 [1]: 7.55 | pIC50 (cells): 5.59 | pIC50 [2]: 6.44 | solubility at 2 h [3]: 20 µg/mL (≈ 56.7 µM) | microsomal CLint at 1 µM [4]: 15 µL/min/mg

Cc1nc2ccc(-n3ncc(C(=O)c4cc5ccccc5[nH]4)c3N)cc2[nH]1 [FGFR INHIBITOR DEBIO 1347]
AUC (SNU-16): 26000 ng·h/mL | TGI (RT112/84): Active | pIC50 (cells): 5.23 | pIC50 [2]: 7.77 | TGI (UM-UC-14): Active | inhibition in vivo at 30 mg/kg [8]: 106% | TGI (MFE-280): Active | inhibition in vivo at 100 mg/kg [9]: 147% | TGI (KG-1): Active

Cc1cc2cc(-n3ncc(C(=O)c4cc5ccccc5[nH]4)c3N)ccc2[nH]1
pIC50 (cells): 5.28 | pIC50 [2]: 7.28 | solubility at 2 h [3]: 10 µg/mL (≈ 28.1 µM) | microsomal CLint at 1 µM [4]: 10 µL/min/mg

Cc1nc2cc(-n3ncc(C(=O)c4cc5ccc(Br)cc5[nH]4)c3N)ccc2[nH]1
bioavailability [5]: 20% | pIC50 [1]: 6.54 | pIC50 (cells): 4.96 | pIC50 [2]: 7.28 | Papp A→B at 2 h, 10 µM [10]: 2.2 ×10⁻⁶ cm/s | inhibition at 10 µM (hERG (KCNH2)): 31% | microsomal CLint at 1 µM [4]: 4.2 µL/min/mg | pIC50 [7]: < 4.30 | pIC50 [6]: < 5.00

Nc1c(C(=O)c2cc3ccccc3[nH]2)cnn1-c1ccc2[nH]c(=O)[nH]c2c1
pIC50 [1]: 5.57 | pIC50 [11]: < 4.30 | pIC50 [12]: < 4.30 | pIC50 [13]: < 4.30

Cc1nc2ccc(-n3ncc(C(=O)c4cc5cc(CN6CCOCC6)ccc5[nH]4)c3N)cc2[nH]1
pIC50 [1]: 6.68 | pIC50 (cells): 5.05 | pIC50 [2]: 7.77 | inhibition at 10 µM (hERG (KCNH2)): 7% | microsomal CLint at 1 µM [4]: 15 µL/min/mg | pIC50 [6]: < 5.00

Cc1nc2cc(-n3ncc(C(=O)c4cc5ccccc5[nH]4)c3N)ccc2[nH]1 [FGFR INHIBITOR DEBIO 1347]
Activity (Rattus norvegicus [14]): Non-Toxic | bioavailability [5]: 30% | pIC50 [1]: 5.68 | pIC50 [11]: 6.54 | solubility at 2 h [3]: 29 µg/mL (≈ 81.4 µM) | Activity (Mus musculus): Non-Toxic | Activity [15]: Non-Toxic | AUC [16]: 102 µg·h/mL | Activity [17]: Non-Toxic | inhibition at 10 µM (hERG (KCNH2)): 69% | microsomal CLint at 1 µM [4]: 13 µL/min/mg | pIC50 [7]: 5.23 | Activity (Rattus norvegicus [18]): Non-Toxic | pIC50 [6]: 5.16
